Read-outs that look alike come from different tables or passages of the source.
Columns and labels:
[1] = target: mCFTR (Mus musculus, UniProt P26361); settings: cited from earlier work
[2] = target: hCFTR (Homo sapiens, UniProt P13569); settings: cited from earlier work
[3] = target: T1, wildtype human CFTR (WT-hCFTR) (Homo sapiens, UniProt P13569); assay: Two-electrode voltage clamp (TEVC) on Xenopus oocytes expressing WT-hCFTR; type: cell-based; settings: for Kd: FIG. 2A
T1 construct: expressed in transfected cells; host or cells: Xenopus laevis oocytes injected with cRNA (hCFTR/pGEMHE, gift of D. Gadsby)
Description: (§1) In order to identify compounds that potentiate F508del-hCFTR expressed in Xenopus oocytes, the effects of IOWH-032 on WT, R352A, and F508del-hCFTR were studied using the two-electrode voltage clamp (TEVC) technique. […] See Drumm et al. Chloride conductance expressed by delta F508 and other mutant CFTRs in Xenopus oocytes. Science, 1991, 254(5039): 1797-1799. Extracellular exposure to IOWH-032 potentiated WT and F508del-hCFTR channels.
Human CFTR cRNAs used in electrophysiology experiments were prepared from constructs encoding WT-hCFTR in the pGEMHE vector (hCFTR/pGEMHE kindly provided by Dr. D. Gadsby, Rockefeller University). The mutants of hCFTR used in this study were prepared using site-directed mutagenesis with the Quikchange protocol (Stratagene, La Jolla, CA) and mutant constructs were verified by sequencing across the entire open reading frame before use. Xenopus laevis oocytes were injected with 0.4-10 ng of CFTR cRNAs, and were incubated at 17° C. in modified Liebovitz's L-15 media with the addition of HEPES (pH 7.5), penicillin, and streptomycin. Recordings were made typically 24-96 hours after the injection of cRNAs.
Standard two-electrode voltage clamp (TEVC) techniques were used to study the effects of chemicals with application of reagents to the extracellular bath. Each oocyte was injected with CFTR cRNA along with cRNA encoding the beta2-adrenergic receptor (β2AR). Electrode resistances measured 0.5-1.4 MΩ when filled with 3 M KCl and measured in standard ND96 bath solution that contained (in mM): 96 NaCl, 2 KCl, 1 MgCl2, and 5 HEPES (pH 7.5). CFTR channels were activated by exposure to 10 μM isoproterenol (ISO) in ND 96 and alternatively assayed in the presence or absence of different concentrations of compounds in the bath solution, typically in the continuing presence of ISO. Currents were acquired with an Axoclamp 900A amplifier and Clampex 10.2 software, and current data were digitized at 2 kHz.

[4] = target: T2, human CFTR with a R352A mutation (Homo sapiens, UniProt P13569, R352A); assay: Two-electrode voltage clamp (TEVC) on Xenopus oocytes expressing R352A-hCFTR; type: cell-based; settings: FIG. 2B
T2 construct: expressed in transfected cells; host or cells: Xenopus laevis oocytes injected with cRNA; mutant made by Quikchange site-directed mutagenesis of hCFTR/pGEMHE
Description: as §1
(§2) Human CFTR cRNAs used in electrophysiology experiments were prepared from constructs encoding WT-hCFTR in the pGEMHE vector (hCFTR/pGEMHE kindly provided by Dr. D. Gadsby, Rockefeller University). The mutants of hCFTR used in this study were prepared using site-directed mutagenesis with the Quikchange protocol (Stratagene, La Jolla, CA) and mutant constructs were verified by sequencing across the entire open reading frame before use. […]
(§3) Standard two-electrode voltage clamp (TEVC) techniques were used to study the effects of chemicals with application of reagents to the extracellular bath. […] Electrode resistances measured 0.5-1.4 MΩ when filled with 3 M KCl and measured in standard ND96 bath solution that contained (in mM): 96 NaCl, 2 KCl, 1 MgCl2, and 5 HEPES (pH 7.5). […]

[5] = target: T3, F508del-hCFTR (Homo sapiens, UniProt P13569, DEL508-508); assay: Two-electrode voltage clamp (TEVC) on Xenopus oocytes expressing F508del-hCFTR; type: cell-based; settings: FIG. 2C
T3 construct: expressed in transfected cells; host or cells: Xenopus laevis oocytes injected with cRNA; mutant made by Quikchange site-directed mutagenesis of hCFTR/pGEMHE
Description: as §1, §2, §3

[6] = extracellular exposure, TEVC, Xenopus oocytes

T1 sequence (P13569 whole entry): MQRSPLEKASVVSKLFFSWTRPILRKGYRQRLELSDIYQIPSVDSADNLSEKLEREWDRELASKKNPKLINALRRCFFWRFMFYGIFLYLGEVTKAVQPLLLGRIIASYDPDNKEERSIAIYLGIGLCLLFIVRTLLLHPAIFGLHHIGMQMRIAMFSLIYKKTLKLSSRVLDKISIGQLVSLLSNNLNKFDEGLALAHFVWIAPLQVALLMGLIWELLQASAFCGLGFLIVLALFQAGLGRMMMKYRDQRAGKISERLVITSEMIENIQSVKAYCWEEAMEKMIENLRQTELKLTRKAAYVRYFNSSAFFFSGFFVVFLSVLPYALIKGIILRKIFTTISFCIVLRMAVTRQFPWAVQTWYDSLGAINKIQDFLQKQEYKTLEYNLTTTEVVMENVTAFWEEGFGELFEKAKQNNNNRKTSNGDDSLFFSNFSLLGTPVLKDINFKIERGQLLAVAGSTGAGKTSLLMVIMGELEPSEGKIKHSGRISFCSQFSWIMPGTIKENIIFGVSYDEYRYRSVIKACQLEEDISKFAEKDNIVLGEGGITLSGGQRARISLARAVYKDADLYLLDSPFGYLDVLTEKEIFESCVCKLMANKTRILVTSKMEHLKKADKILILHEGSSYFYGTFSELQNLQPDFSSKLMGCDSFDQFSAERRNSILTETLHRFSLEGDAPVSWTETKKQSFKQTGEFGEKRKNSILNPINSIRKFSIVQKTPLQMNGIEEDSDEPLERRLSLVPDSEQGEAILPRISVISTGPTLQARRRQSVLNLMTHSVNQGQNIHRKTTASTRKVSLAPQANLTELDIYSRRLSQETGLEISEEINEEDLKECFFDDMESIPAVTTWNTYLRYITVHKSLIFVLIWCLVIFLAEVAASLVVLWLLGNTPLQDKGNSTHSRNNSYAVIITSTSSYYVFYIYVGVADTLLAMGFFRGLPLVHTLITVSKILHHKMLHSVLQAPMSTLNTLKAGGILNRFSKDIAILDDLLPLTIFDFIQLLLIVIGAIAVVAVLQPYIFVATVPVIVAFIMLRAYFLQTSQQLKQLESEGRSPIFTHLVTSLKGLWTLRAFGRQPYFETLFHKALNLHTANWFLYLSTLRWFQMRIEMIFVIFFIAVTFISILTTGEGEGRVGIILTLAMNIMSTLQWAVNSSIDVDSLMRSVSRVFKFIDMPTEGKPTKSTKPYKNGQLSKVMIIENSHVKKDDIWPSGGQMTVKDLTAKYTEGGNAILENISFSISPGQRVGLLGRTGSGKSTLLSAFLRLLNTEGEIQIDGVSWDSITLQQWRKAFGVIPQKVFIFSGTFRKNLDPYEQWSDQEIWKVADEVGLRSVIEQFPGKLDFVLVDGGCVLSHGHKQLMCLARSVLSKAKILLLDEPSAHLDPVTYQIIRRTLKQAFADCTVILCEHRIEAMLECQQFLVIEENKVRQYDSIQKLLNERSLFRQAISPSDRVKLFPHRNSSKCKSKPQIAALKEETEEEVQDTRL
T2 sequence (P13569 whole entry R352A): as the sequence (P13569 whole entry) above, with R352A counted along it
Chain of mCFTR (P26361 whole entry): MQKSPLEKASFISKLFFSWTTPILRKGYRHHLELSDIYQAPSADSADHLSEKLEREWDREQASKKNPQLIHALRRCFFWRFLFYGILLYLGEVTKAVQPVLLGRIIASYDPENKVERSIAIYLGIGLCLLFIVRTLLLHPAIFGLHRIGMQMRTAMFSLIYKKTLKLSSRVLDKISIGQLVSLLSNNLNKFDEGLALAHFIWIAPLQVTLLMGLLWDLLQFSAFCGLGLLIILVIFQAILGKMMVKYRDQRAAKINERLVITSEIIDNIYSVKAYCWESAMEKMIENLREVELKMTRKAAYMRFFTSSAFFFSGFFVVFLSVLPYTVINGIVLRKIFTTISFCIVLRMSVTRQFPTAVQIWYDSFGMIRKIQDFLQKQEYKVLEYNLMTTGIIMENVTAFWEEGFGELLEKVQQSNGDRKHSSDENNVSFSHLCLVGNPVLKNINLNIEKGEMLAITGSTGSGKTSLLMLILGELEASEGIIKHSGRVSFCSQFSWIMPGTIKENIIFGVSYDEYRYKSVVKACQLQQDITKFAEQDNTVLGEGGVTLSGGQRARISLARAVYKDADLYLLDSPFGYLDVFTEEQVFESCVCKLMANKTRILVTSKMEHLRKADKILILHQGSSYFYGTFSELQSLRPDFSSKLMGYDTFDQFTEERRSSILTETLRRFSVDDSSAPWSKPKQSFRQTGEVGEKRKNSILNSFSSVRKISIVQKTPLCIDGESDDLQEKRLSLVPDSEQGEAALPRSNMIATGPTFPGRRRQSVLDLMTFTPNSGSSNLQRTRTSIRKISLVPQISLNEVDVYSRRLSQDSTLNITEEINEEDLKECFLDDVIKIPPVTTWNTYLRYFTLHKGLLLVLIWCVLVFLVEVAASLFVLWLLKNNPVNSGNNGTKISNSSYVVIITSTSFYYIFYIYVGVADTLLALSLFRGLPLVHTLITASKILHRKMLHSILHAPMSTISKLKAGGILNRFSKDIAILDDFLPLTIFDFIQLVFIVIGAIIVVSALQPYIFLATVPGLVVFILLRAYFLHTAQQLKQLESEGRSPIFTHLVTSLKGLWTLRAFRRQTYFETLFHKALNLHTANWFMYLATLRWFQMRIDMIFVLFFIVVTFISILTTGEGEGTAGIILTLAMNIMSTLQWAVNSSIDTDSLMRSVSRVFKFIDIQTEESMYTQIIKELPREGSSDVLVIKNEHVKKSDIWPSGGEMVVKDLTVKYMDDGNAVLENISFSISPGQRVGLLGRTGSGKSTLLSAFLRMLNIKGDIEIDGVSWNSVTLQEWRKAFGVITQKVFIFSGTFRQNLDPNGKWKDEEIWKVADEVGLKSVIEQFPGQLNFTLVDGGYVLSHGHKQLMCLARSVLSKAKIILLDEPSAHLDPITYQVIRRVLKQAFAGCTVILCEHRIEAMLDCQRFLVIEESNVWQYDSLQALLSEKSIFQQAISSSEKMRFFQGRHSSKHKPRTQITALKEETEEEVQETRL
Chain of hCFTR (P13569 whole entry): as the sequence (P13569 whole entry) above
T3 sequence (P13569 with tags, fused parts or gaps DEL508-508): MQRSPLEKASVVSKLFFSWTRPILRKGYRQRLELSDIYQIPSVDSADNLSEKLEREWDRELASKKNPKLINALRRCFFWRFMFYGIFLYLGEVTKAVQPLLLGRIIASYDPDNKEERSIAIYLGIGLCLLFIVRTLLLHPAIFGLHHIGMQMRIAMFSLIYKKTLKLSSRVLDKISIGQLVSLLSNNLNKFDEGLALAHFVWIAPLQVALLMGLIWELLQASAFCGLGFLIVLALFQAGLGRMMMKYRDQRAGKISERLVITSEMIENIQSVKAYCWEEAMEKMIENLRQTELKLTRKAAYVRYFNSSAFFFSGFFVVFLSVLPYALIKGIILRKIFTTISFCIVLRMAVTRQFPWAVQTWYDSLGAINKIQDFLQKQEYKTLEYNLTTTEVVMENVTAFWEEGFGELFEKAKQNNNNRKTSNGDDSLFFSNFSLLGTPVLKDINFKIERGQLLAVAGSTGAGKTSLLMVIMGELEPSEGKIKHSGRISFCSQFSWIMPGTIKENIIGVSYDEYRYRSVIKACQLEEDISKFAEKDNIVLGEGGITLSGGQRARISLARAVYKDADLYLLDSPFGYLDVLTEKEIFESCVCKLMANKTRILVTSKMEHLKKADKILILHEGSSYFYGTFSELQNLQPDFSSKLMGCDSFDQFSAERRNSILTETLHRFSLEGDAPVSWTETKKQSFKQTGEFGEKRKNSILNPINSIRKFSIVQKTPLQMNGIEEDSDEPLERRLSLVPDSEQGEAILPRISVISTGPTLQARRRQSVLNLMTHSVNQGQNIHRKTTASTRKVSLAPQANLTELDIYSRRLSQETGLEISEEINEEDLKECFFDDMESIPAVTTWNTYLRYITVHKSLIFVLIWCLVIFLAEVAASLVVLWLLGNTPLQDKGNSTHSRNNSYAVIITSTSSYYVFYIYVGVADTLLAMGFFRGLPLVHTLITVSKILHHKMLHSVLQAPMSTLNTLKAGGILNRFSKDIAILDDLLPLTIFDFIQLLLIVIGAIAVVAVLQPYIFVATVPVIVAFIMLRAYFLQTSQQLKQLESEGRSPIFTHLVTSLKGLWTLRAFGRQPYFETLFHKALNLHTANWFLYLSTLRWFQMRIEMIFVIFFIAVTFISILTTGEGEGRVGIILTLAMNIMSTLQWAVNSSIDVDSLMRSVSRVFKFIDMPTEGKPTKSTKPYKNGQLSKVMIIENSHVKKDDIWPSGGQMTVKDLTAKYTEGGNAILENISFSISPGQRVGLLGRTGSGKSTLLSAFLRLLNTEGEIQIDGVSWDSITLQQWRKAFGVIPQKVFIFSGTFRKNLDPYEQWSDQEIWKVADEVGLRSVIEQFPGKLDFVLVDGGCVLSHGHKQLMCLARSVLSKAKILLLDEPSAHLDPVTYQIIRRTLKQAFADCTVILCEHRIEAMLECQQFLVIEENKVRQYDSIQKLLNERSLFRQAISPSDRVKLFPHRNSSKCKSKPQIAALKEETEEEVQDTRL

SMILES: O=C(CNc1ccc2ccccc2c1)N/N=C/c1cc(Br)c(O)c(Br)c1O [GlyH-101]
- Potentiation of mCFTR [1]: potentiate

SMILES: O=C(O)c1cc([N+](=O)[O-])ccc1NCCCc1ccccc1 [NPPB]
- Potentiation of hCFTR ([2]; channel incompletely phosphorylated, activated by a low concentration of PKA): potentiate
- Potentiation of hCFTR ([2]; extremely high concentrations of NPPB): potentiate

SMILES: COc1ccc(Cl)cc1C(=O)NCCc1ccc(S(=O)(=O)NC(=O)NC2CCCCC2)cc1 [glibenclamide]
- Potentiation of mCFTR [1]: potentiate

SMILES: O=C(NCc1ccc(Oc2ccccc2)cc1)c1nc(-c2cc(Br)c(O)c(Br)c2)no1 [iOWH-032, 3-(3,5-dibromo-4-hydroxyphenyl)-N-(4-phenoxybenzyl)-1,2,4-oxadiazole-5-carboxamide]
- Kd ([3]; inhibition component, read-out: Kd of inhibition of WT-hCFTR): 6.1 nM
- Kd ([3]; potentiation component, read-out: Kd of potentiation of WT-hCFTR): 0.64 nM
- Potentiation of WT-hCFTR channels [3, 6]: potentiated
- Inhibition of R352A human CFTR [4]: did not inhibit
- Potentiation of R352A human CFTR [4]: potentiated
- Inhibition of F508del human CFTR [5]: did not inhibit
- Potentiation of F508del human CFTR [5, 6]: potentiated

Reference: patent US11844785B2, “3-(phenyl)-N-(4-phenoxybenzyl)-1,2,4-oxadiazole-5-carboxamide compounds for the management of CFTR protein mediated diseases” (Emory University, priority 2015, dated 2023)
